Read-outs that look alike come from different tables or passages of the source.
Columns and labels:
[1] = Turbidity, derived count rate of scattered light; type: physicochemical; details: for Count Rate / kcps: derived count rate of scattered light at 633 nm, 173°, from zeta-potential measurement, 0.1 mg/mL in 1 mM KCl after 1 d at 1 mg/mL in PBS, turbidity / microscopic aggregation, mean of triplicate
Method in brief: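 One-day room-temperature aggregation at 1 mg/mL in PBS (pH 7.4) preceded measurement; samples then went into 1 mM KCl. Triplicates per sample, two independent experiments averaged.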

[2] = type: physicochemical; details: for ThT Cat. / ThT-Fluorescence (categorical): ThT-active if fluorescence at least twice the control
Method in brief: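 Fibrils (1 mg/mL solution) were mixed with 50 µM ThT in PBS for 15 min at RT, and fluorescence was read at λex 440/λem 488 nm against a PBS blank, as a triplicate mean ± SD. Zeta potential came from electrophoretic mobility (Smoluchowski) after 1 d aggregation at 1 mg/mL in PBS pH 7.4, diluted into 1 mM KCl.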

[3] = Log10 of derived count rate of scattered light (turbidity)
[4] = turbidity, Log10 of derived count rate of scattered light, Figure 3A source data
[5] = turbidity, log10 of derived count rate of scattered light
[6] = log10 of derived count rate of scattered light (turbidity)
[7] = ThT fluorescence category, 1 if Rel. ThT >2

CRFRFQF
1 (ThT. Cat is 1, if Rel. ThT >2): Tht category (> 2 to blank = +) ([2]; Fig S10 panel D) | ThT Cat. ([2]; Fig S10 panel E) | ThT Cat, ([2]; ThT category, 1 if Rel. ThT >2) | ThT Cat. ([2]; ThT category, 1 if Rel. ThT >2) | ThT Cat. / ThT-Fluorescence (categorical) [2]
2.592: Log10 Count Rate [1, 3] | Log10 Count Rate [1, 4] | Log10 Count Rate [1, 5]
391 kcps: Count Rate / kcps [1]

CRFRVPF
0 (ThT-inactive (N-Fold <2)): Tht category (> 2 to blank = +) ([2]; Fig S10 panel D) | ThT Cat. ([2]; Fig S10 panel E) | Tht category (> 2 to blank = +) ([2]; FigS12 panel A) | ThT Cat, ([2]; FigS12 panel B) | ThT Cat, ([2]; ThT category, 1 if Rel. ThT >2) | ThT Cat. ([2]; ThT category, 1 if Rel. ThT >2) | ThT Cat. / ThT-Fluorescence (categorical) [2]
74 kcps: Count Rate / kcps [1]
1.869: Log10 Count Rate [1, 3] | Log10 Count Rate [1, 4] | Log10 Count Rate [1, 5]

EFEFQF
1 (ThT. Cat is 1, if Rel. ThT >2): Tht category (> 2 to blank = +) ([2]; Fig S10 panel D) | Tht category (> 2 to blank = +) ([2]; FigS12 panel A) | ThT Cat, ([2]; FigS12 panel B) | ThT Cat, ([2]; ThT category, 1 if Rel. ThT >2) | ThT Cat. [2, 7] | ThT Cat. / ThT-Fluorescence (categorical) [2]
405 kcps: Count Rate / kcps [1]
2.608: Log10 Count Rate [1, 3] | Log10 Count Rate [1, 6] | Log10 Count Rate [1, 4]

EIEIEIEI
538 kcps: Count Rate / kcps [1]
0 (ThT-inactive (N-Fold <2)): Tht category (> 2 to blank = +) ([2]; Fig S10 panel D) | Tht category (> 2 to blank = +) ([2]; FigS12 panel A) | ThT Cat, ([2]; FigS12 panel B) | ThT Cat, ([2]; ThT category, 1 if Rel. ThT >2) | ThT Cat. [2, 7] | ThT Cat. / ThT-Fluorescence (categorical) [2]
2.731: Log10 Count Rate [1, 3] | Log10 Count Rate [1, 4] | Log10 Count Rate [1, 5]

FDPFDPFDP
2.412: Log10 Count Rate [1, 3] | Log10 Count Rate [1, 4] | Log10 Count Rate [1, 5]
258 kcps: Count Rate / kcps [1]
0 (ThT-inactive (N-Fold <2)): Tht category (> 2 to blank = +) ([2]; Fig S10 panel D) | Tht category (> 2 to blank = +) ([2]; FigS12 panel A) | ThT Cat, ([2]; FigS12 panel B) | ThT Cat, ([2]; ThT category, 1 if Rel. ThT >2) | ThT Cat. ([2]; ThT category, 1 if Rel. ThT >2) | ThT Cat. / ThT-Fluorescence (categorical) [2]

FKFDKFKFDK
0 (ThT-inactive (N-Fold <2)): Tht category (> 2 to blank = +) ([2]; Fig S10 panel D) | Tht category (> 2 to blank = +) ([2]; FigS12 panel A) | ThT Cat, ([2]; FigS12 panel B) | ThT Cat, ([2]; ThT category, 1 if Rel. ThT >2) | ThT Cat. ([2]; ThT category, 1 if Rel. ThT >2) | ThT Cat. / ThT-Fluorescence (categorical) [2]
45 kcps: Count Rate / kcps [1]
1.6545: Log10 Count Rate [1, 3] | Log10 Count Rate [1, 4] | Log10 Count Rate [1, 5]

HGDKCHGDKC
1.095: Log10 Count Rate [1, 3] | Log10 Count Rate [1, 4] | Log10 Count Rate [1, 5]
0 (ThT-inactive (N-Fold <2)): Tht category (> 2 to blank = +) ([2]; Fig S10 panel D) | ThT Cat. ([2]; Fig S10 panel E) | Tht category (> 2 to blank = +) ([2]; FigS12 panel A) | ThT Cat, ([2]; FigS12 panel B) | ThT Cat, ([2]; ThT category, 1 if Rel. ThT >2) | ThT Cat. ([2]; ThT category, 1 if Rel. ThT >2) | ThT Cat. / ThT-Fluorescence (categorical) [2]
12 kcps: Count Rate / kcps [1]

HGEHGE
241 kcps: Count Rate / kcps [1]
2.381: Log10 Count Rate [1, 3] | Log10 Count Rate [1, 4] | Log10 Count Rate [1, 5]
0 (ThT-inactive (N-Fold <2)): Tht category (> 2 to blank = +) ([2]; Fig S10 panel D) | Tht category (> 2 to blank = +) ([2]; FigS12 panel A) | ThT Cat, ([2]; FigS12 panel B) | ThT Cat, ([2]; ThT category, 1 if Rel. ThT >2) | ThT Cat. ([2]; ThT category, 1 if Rel. ThT >2) | ThT Cat. / ThT-Fluorescence (categorical) [2]

HGEHGEHGE
340 kcps: Count Rate / kcps [1]
0 (ThT-inactive (N-Fold <2)): Tht category (> 2 to blank = +) ([2]; Fig S10 panel D) | ThT Cat. ([2]; Fig S10 panel E) | Tht category (> 2 to blank = +) ([2]; FigS12 panel A) | ThT Cat, ([2]; FigS12 panel B) | ThT Cat, ([2]; ThT category, 1 if Rel. ThT >2) | ThT Cat. ([2]; ThT category, 1 if Rel. ThT >2) | ThT Cat. / ThT-Fluorescence (categorical) [2]
2.532: Log10 Count Rate [1, 3] | Log10 Count Rate [1, 4] | Log10 Count Rate [1, 5]

HHHHEIEIEIEI
103 kcps: Count Rate / kcps [1]
1 (ThT. Cat is 1, if Rel. ThT >2): Tht category (> 2 to blank = +) ([2]; Fig S10 panel D) | Tht category (> 2 to blank = +) ([2]; FigS12 panel A) | ThT Cat, ([2]; FigS12 panel B) | ThT Cat, ([2]; ThT category, 1 if Rel. ThT >2) | ThT Cat. [2, 7] | ThT Cat. / ThT-Fluorescence (categorical) [2]
2.014: Log10 Count Rate [1, 3] | Log10 Count Rate [1, 6] | Log10 Count Rate [1, 4]

HIHIQIC
1 (ThT. Cat is 1, if Rel. ThT >2): Tht category (> 2 to blank = +) ([2]; Fig S10 panel D) | ThT Cat. ([2]; Fig S10 panel E) | ThT Cat, ([2]; ThT category, 1 if Rel. ThT >2) | ThT Cat. ([2]; ThT category, 1 if Rel. ThT >2) | ThT Cat. / ThT-Fluorescence (categorical) [2]
2.416: Log10 Count Rate [1, 3] | Log10 Count Rate ([1]; logarithm of count rate in kcps) | Log10 Count Rate [1, 4] | Log10 Count Rate [1, 5]
261 kcps: Count Rate / kcps [1]

Source: article PMC10447463, “Data-mining unveils structure–property–activity correlation of viral infectivity enhancing self-assembling peptides” (Nature Communications, 2023)
